{"source": "patent US7259167B2", "about": "“Antimalarial and antiproliferative pharmacophore models, novel tryptanthrin compounds having increased solubility, and methods of making and using thereof” (United States of America as Represented by the Secretary of …, priority 2002, dated 2007)", "key": {"[1]": {"assay": "Hemin binding activity assay by 1H NMR (pseudocontact shifts)", "conditions": "DMSO-d6", "method": "As provided in Example 5, the hemin binding affinity for a series of tryptanthrin compounds with functional groups at the 8-position with different electron donating/withdrawing characteristics corresponding with the pharmacophore model of the present invention was determined by ^1H NMR. The binding interaction was measured as a function of the induced up-field shift in the chemical shift as a function of increasing hemin concentration. ^1H spectra of selected compounds each analog with an increasing concentration of hemin were collected and analyzed for the effect of the pseudocontact shifts.\nIt is well known that bio-molecules containing the paramagnetic species Fe^+3 induce via pseudocontact effect (a thru-space paramagnetic interaction, similar to the thru-space diopolar interaction or NOE) up-field chemical shifts of the ^1H, ^13C, ^15N atoms of bound ligands. See Serge Moreau et al. (1985) Biochemica et. Biophysica Acta 107-116; Alam, S. L., et al. (1998) J. Biomol. NMR 11:119-133; and Kalodimos, C. G., et al. (2000) J. Inorg. Biochem. 79:371-380, which are herein incorporated by reference. […] See Crowley, P. B., et al. (2001) J. Am. Chem. Soc. 123:10444-10453, which is herein incorporated by reference. Consequently, the closer a particular proton on the ligand is to the Fe^+3 atom, the greater the induced Δδ.\nThe hemin binding affinity for a series of tryptanthrin compounds with functional groups at the 8-position with different electron donating/withdrawing characteristics corresponding with the pharmacophore model of the present invention was determined using ^1H NMR. The binding interaction was measured as a function of the induced up-field shift in the chemical shift as a function of increasing hemin concentration. ^1H spectra of each analog with an increasing concentration of hemin were collected and analyzed for the effect of the pseudocontact shifts.\nTo each sample, a 100 or 200 μl aliquot of a known concentration of hemin dissolved in 1.0 ml of DMSO-d6 was added. The concentrations of the tryptanthrin compounds compounds ranged from 3.0 to 8.0 mg per 500 μl of DMSO. A corresponding solution of hemin in DMSO was prepared to maintain a molar ratio of tryptanthrin compounds to hemin in the range of 1:1.0 to 1:1.5.\nAll ^1H NMR data was collected using a Bruker Avance-600 spectrometer using methods known in the art. See e.g. Wang, J., et al. (2001) J. Am. Chem. Soc. 123:8080-8088, which is herein incorporated by reference. The proton spectra were collected at 300 K, using a spectral width of 9090.9 Hz. All spectra were acquired with 64k data points in F2. All chemical shifts were referenced internally to TMS (0.00 ppm). The spectra were processed using XWINNMR (Bruker BioSpin Corporation, Billerica, Mass.) on a Silicon Graphics O2 workstation (Silicon Graphics, Mountain View, Calif.). Each data set was multiplied by a Gaussain window function with 0.3 Hz line broadening in each dimension before transformation."}, "[2]": {"assay": "Solubility of DN49 in various solvents", "assay_type": "physicochemical", "conditions": "for solubility: organic solvent or mixture", "method": "The solubility of DN49 (WR288510) was tested in various solvents to determine the properties encouraging solubility. […] An N—H group on an aromatic compound might be forming a complex with tryptanthrin. […] (200 mM) concentration in a solvent. The temperature is a close approximation to the temperature required to achieve solubility. Color is the color of the solution; DN49 is a yellow compound and colors other than yellow indicate close interaction between solvent and solute. Precipitate is whether or not DN49 precipitated out upon cooling to room temperature."}, "[3]": {"assay": "Characteristics of DN49 dosing preparation", "assay_type": "physicochemical", "conditions": "Hot DMSO and further diluted in PBS (1:10)", "method": "(§1) DN49 was a yellow powder and dissolved completely in hot DMSO. The hot DMSO solution was then diluted 1:10 in PBS."}, "[4]": {"test_system": "P. berghei P-line", "assay": "Bioavailability and efficacy of DN49 in infected mice", "assay_type": "in vivo", "method": "On day 0, each mouse in groups 1 to 7 was inoculated intraperitoneally with 0.1 ml, 1.0×10^6 P. berghei P-line infected red blood cell from donor mice diluted in PBS.\nas §1\nOn days 3 to 5, 0.2 ml of the three dosages at 2.5, 1.25, 0.625 mg/kg of DN49 were administered intravenously by a 29G, 0.5-inch needle (Groups 2 to 4). In addition, 0.2 ml of the three dosages at 30, 15, 7.5 mg/kg of DN49 were administered orally by a 20G, 2.5-inch needle (Groups 5 to 7). Drug administrations were performed once daily for 3 days. Group 1 served as vehicle control, and PBS was administered orally."}}, "data": [{"smiles": "O=C1c2ccccc2-n2c1nc1ncccc1c2=O", "note": "[DN49]", "values": [{"measurement": "Maximum induced Δδ", "setting": "[1]; hemin induced pseudocontact chemical shift", "result": 0.558, "unit": "ppm"}, {"measurement": "Concentration dependence Δδ", "setting": "[1]; slope of Δδ v. hemin concentration", "result": 0.09778, "unit": "ppm/mole %"}, {"measurement": "Precipitate upon cooling to room temperature", "setting": "[2]; 1,4-dioxane", "result": "yes"}, {"measurement": "solubility", "setting": "[2]; 1,4-dioxane, 80 °C", "result": "> 25", "unit": "mg/mL"}, {"measurement": "solubility", "setting": "[2]; 3,4-dihydro-2H-pyran", "result": "< 25", "unit": "mg/mL"}, {"measurement": "Precipitate upon cooling to room temperature", "setting": "[2]; Aniline", "result": "No"}, {"measurement": "solubility", "setting": "[2]; Aniline, 18 °C", "result": "> 25", "unit": "mg/mL"}, {"measurement": "Precipitate upon cooling to room temperature", "setting": "[2]; Benzoic acid", "result": "Yes"}, {"measurement": "solubility", "setting": "[2]; Benzoic acid, 50 °C", "result": "> 25", "unit": "mg/mL"}, {"measurement": "solubility", "setting": "[2]; Benzyl alcohol, 30 °C, Benzyly alcohol", "result": "> 25", "unit": "mg/mL"}, {"measurement": "Precipitate upon cooling to room temperature", "setting": "[2]; Benzyly alcohol", "result": "No"}, {"measurement": "solubility", "setting": "[2]; Diethylamine", "result": "< 25", "unit": "mg/mL"}, {"measurement": "solubility", "setting": "[2]; Dimethylsulfoxide, Dimethylsufoxide", "result": "< 25", "unit": "mg/mL"}, {"measurement": "Precipitate upon cooling to room temperature", "setting": "[2]; Indole", "result": "Solidified"}, {"measurement": "solubility", "setting": "[2]; Indole, 53 °C", "result": "> 25", "unit": "mg/mL"}, {"measurement": "Precipitate upon cooling to room temperature", "setting": "[2]; Isoquinoline", "result": "Solidified"}, {"measurement": "solubility", "setting": "[2]; Isoquinoline", "result": "> 25", "unit": "mg/mL"}, {"measurement": "Precipitate upon cooling to room temperature", "setting": "[2]; N-methylbenzylamine", "result": "No"}, {"measurement": "solubility", "setting": "[2]; N-methylbenzylamine", "result": "> 25", "unit": "mg/mL"}, {"measurement": "solubility", "setting": "[2]; N-methylpiperidine", "result": "< 25", "unit": "mg/mL"}, {"measurement": "Precipitate upon cooling to room temperature", "setting": "[2]; Nitrobenzene", "result": "Yes"}, {"measurement": "solubility", "setting": "[2]; Nitrobenzene", "result": "> 25", "unit": "mg/mL"}, {"measurement": "Precipitate upon cooling to room temperature", "setting": "[2]; Phenol", "result": "solidified"}, {"measurement": "solubility", "setting": "[2]; Phenol", "result": "> 25", "unit": "mg/mL"}, {"measurement": "Precipitate upon cooling to room temperature", "setting": "[2]; Piperidine", "result": "No"}, {"measurement": "solubility", "setting": "[2]; Piperidine", "result": "> 25", "unit": "mg/mL"}, {"measurement": "Precipitate upon cooling to room temperature", "setting": "[2]; Pyridine", "result": "Yes"}, {"measurement": "solubility", "setting": "[2]; Pyridine", "result": "> 25", "unit": "mg/mL"}, {"measurement": "Precipitate upon cooling to room temperature", "setting": "[2]; Pyrrole", "result": "No"}, {"measurement": "solubility", "setting": "[2]; Pyrrole", "result": "> 25", "unit": "mg/mL"}, {"measurement": "Precipitate upon cooling to room temperature", "setting": "[2]; Pyrrolidine", "result": "No"}, {"measurement": "solubility", "setting": "[2]; Pyrrolidine", "result": "> 25", "unit": "mg/mL"}, {"measurement": "solubility", "setting": "[2]; Tetrahydrofuran", "result": "< 25", "unit": "mg/mL"}, {"measurement": "solubility", "setting": "[2]; Toluene", "result": "< 25", "unit": "mg/mL"}, {"measurement": "solubility", "setting": "[2]; Triethylamine", "result": "< 25", "unit": "mg/mL"}, {"measurement": "solubility", "setting": "[3]", "result": "Partial"}, {"measurement": "extension of life of mice", "setting": "[4]; 2.5 mg/kg intravenously once daily at study days 3 to 5", "result": 2, "unit": "days"}, {"measurement": "extension of life of mice", "setting": "[4]; 30 mg/kg orally once daily at study days 3 to 5", "result": 2, "unit": "days"}, {"measurement": "mean parasitemia on day 6", "setting": "[4]; Group 2, 2.5 mg/kg intravenously once daily days 3 to 5", "result": 54.75, "unit": "%"}, {"measurement": "mean parasitemia on day 6", "setting": "[4]; Group 3, 1.25 mg/kg intravenously once daily days 3 to 5", "result": 55.75, "unit": "%"}, {"measurement": "mean parasitemia on day 6", "setting": "[4]; Group 4, 0.625 mg/kg intravenously once daily days 3 to 5", "result": 61.18, "unit": "%"}, {"measurement": "mean parasitemia on day 6", "setting": "[4]; Group 5, 30 mg/kg orally once daily days 3 to 5", "result": 56.11, "unit": "%"}, {"measurement": "mean parasitemia on day 6", "setting": "[4]; Group 6, 15 mg/kg orally once daily days 3 to 5", "result": 54.26, "unit": "%"}, {"measurement": "mean parasitemia on day 6", "setting": "[4]; Group 7, 7.5 mg/kg orally once daily days 3 to 5", "result": 64.23, "unit": "%"}, {"measurement": "acute toxicity or other deaths prior to day 6", "setting": "[4]; IV 0.625-2.5 mg/kg, oral 7.5-30 mg/kg", "result": "no acute toxicity"}, {"measurement": "Toxic effects", "setting": "[4]; at the dosages given (up to 2.5 mg/kg IV, 30 mg/kg oral)", "result": "not observed"}, {"measurement": "activity at lower dosages", "setting": "[4]; dosages below 2.5 mg/kg intravenously or 30 mg/kg orally", "result": "no significant activity"}]}]}
